Paper PMC9866588, “Novel 7-Chloro-4-aminoquinoline-benzimidazole Hybrids as Inhibitors of Cancer Cells Growth: Synthesis, Antiproliferative Activity, in Silico ADME Predictions, and Docking” (Molecules, 2023)

Assays:
[1] = test system: THP-1 (acute monocytic leukemia) cells; test: MTT antiproliferative assay, THP-1; type: cell-based, human
Protocol: (§1) The growth inhibition activity was assessed according to the slightly modified procedure performed at the National Cancer Institute, Developmental Therapeutics Program.
(§2) The examined compounds were dissolved in DMSO (1 × 10^−2 M). The experiments were carried out on seven human tumor cell lines and a normal cell line. The following cell lines were used: HeLa (human cervical adenocarcinoma; purchased from ATCC), CaCo-2 (human colorectal adenocarcinoma), MCF-7 (human breast adenocarcinoma), CCRF-CEM (human acute lymphoblastic leukemia), Hut78 (T-cell lymphoma), THP-1 (acute monocytic leukemia), Burkitt lymphoma (Raji), and MDCK1 (Madine–Darby canine kidney). The MDCK1 cells were used between 24 and 26 passages.
(§3) The adherent cells were cultured in Dulbecco’s modified Eagle medium—DMEM (Gibco, Termo Fisher Scientific Inc., Leicestershire, England, UK), supplemented with 10% heat-inactivated fetal bovine serum (FBS, Gibco, Termo Fisher Scientific Inc., Leicestershire, England, UK), 2 mM glutamine, and 100U/0.1mg penicillin/streptomycin. The cells in suspension were cultured in RPMI 1640 (Gibco, Termo Fisher Scientific Inc., Leicestershire, England, UK) medium, supplemented with 10% FBS (Gibco, Termo Fisher Scientific Inc., Leicestershire, England, UK), 2 mM glutamine, 1 mM sodium pyruvate, and 10 mM HEPES. The cells were grown in a humidified atmosphere under the conditions of 37 °C/5% of CO2 gas in the CO2 incubator (IGO 150 CELLlife^TM, JOUAN, Thermo Fisher Scientific, Waltham, MA, USA).
(§4) The adherent cells (HeLa, CaCo-2, MCF-7, and MDCK-1) were plated in 96-well flat bottom plates (Greiner, Frickenhausen, Austria) at a concentration of 2 × 10^4 cells/mL. The suspension cells (Raji, THP-1, CCRF-CEM and Hut78) were plated in 96-well microtiter plates (Sarstead, Newton, NC, USA) at a concentration of 1 × 10^5 cells/mL. Twenty-four hours later, the cells were treated with test agents in […] and incubated for a further 72 h. The working dilutions were freshly prepared on the day of testing. The solvent was also tested for eventual inhibitory activity by adjusting its concentration to be the same as in the working concentrations. After 72 h of incubation, the cell growth rate was evaluated by performing the MTT assay, which detects dehydrogenase activity in viable cells. For this purpose, upon completion of the incubation period, the growth medium was discarded and 50 μL of MTT was added to each well at a concentration of 5 mg/mL. After four hours of incubation at 37 °C, the water insoluble MTT-formazan crystals were dissolved in 150 μL of dimethyl-sulfoxide (DMSO) for the adherent cells and in 10% SDS with 0.01 mol/L HCl for the cells grown in suspension. The absorbance (OD, optical density) was measured on a microplate reader (iMark, BIO RAD, Hercules, CA, USA) at 595 nm.
(§5) The percentage of live cells was calculated as follows: % = OD (sample) − OD (background)/OD (control) − OD (background) × 100.
(§6) The optical density (OD) of the background for the adherent cells is the OD of the MTT solution and DMSO; the OD (background) for the suspension cells is the OD of the culture medium with MTT and 10% SDS with 0.01 mol/L HCl; the OD (control) is the OD of the cells grown without the tested compounds.
(§7) The calculation of the GI50 value curves and QC analysis was performed using the Excel tools and GraphPadPrism software (La Jolla, CA, USA), v. 5.03. Briefly, individual concentration effect curves are generated by plotting the logarithm of the concentration of the tested compounds (X) vs. the corresponding percent inhibition values (Y) using the least squares fit. The best-fit GI50 values are calculated using log (inhibitor) versus normalized response—variable slope equation, where Y Ľ 100/(1 ţ 10 ((LogIC50 _ X) × HillSlope)). The QC criteria parameters (Z0, S:B, R2, HillSlope) were checked for every GI50 curve.

[2] = test system: MDCK1 (Madine–Darby canine kidney) cells; test: MTT antiproliferative assay, MDCK1; type: cell-based; conditions: mean ± SD of three independent experiments
Protocol: as §1, §2, §3, §4, §5, §6, §7

[3] = test system: Raji (Burkitt lymphoma) cells; test: MTT antiproliferative assay, Raji; type: cell-based, human; conditions: Homo sapiens, Raji; 72 h, MTT, mean ± SD of three independent experiments
Protocol: as §1, §2, §3, §4, §5, §6, §7

THP-1 cells = test: Flow cytometry analysis of cell cycle, THP-1; type: cell-based, human; conditions: THP-1, 5 μM, 24 h
Protocol: (§8) To analyze the effects of the selected compounds (5d, 8d, and 12d) on the cell cycle of the HuT78 and THP-1 cells, the cells were seeded in 6-well plates (5 × 10^5 cells per well) and treated for 24 h with the selected compounds 5d and 12d (5 μM). The cells were then collected and fixed in cold 70% ethanol. The fixed samples were stained with 15 µg/mL of propidium iodide (PI) at room temperature and analyzed by flow cytometry (FACS Canto II, BD Biosciences). The results were analyzed using FlowLogic software.
(§9) One-way ANOVA analysis of variance was performed in the MedCalc statistical program for the analysis of the cell cycle. p-values of less than 0.05 were considered to be statistically significant.

[4] = test system: HeLa (human cervical adenocarcinoma) cells; test: MTT antiproliferative assay, HeLa; type: cell-based; conditions: 72 h, mean ± SD of three independent experiments
Protocol: as §1, §2, §3, §4, §5, §6, §7

HuT78 cells = test: Flow cytometry analysis of cell cycle, HuT78; type: cell-based, human; conditions: HuT78, 5 μM, 24 h
Protocol: as §8, §9

[5] = MTT antiproliferative assay, ranges stated over several cell lines; type: cell-based; conditions: human (tumor cell lines) and dog (MDCK1); abstract, range over cell lines; read-out: GI50 range (strong cytotoxic activity)
Protocol: as §1, §2, §3, §4, §5, §6, §7

[6] = test system: normal (MDCK1) and tumor cell lines; test: as above; type: cell-based; conditions: MDCK1; range over tumor cell lines; read-out: GI50 range, tumor cell lines
Protocol: as §1, §2, §3, §4, §5, §6, §7

[7] = test system: CaCo-2 (human colorectal adenocarcinoma) cells; test: MTT antiproliferative assay, CaCo-2; type: cell-based; conditions: 72 h, mean ± SD of three independent experiments
Protocol: as §1, §2, §3, §4, §5, §6, §7

[8] = test system: CCRF-CEM (human acute lymphoblastic leukemia) cells; test: MTT antiproliferative assay, CCRF-CEM; type: cell-based; conditions: Homo sapiens, CCRF-CEM; 72 h, MTT, mean ± SD of three independent experiments
Protocol: as §1, §2, §3, §4, §5, §6, §7

[9] = test system: Hut78 (T-cell lymphoma) cells; test: MTT antiproliferative assay, HuT78; type: cell-based, human
Protocol: as §1, §2, §3, §4, §5, §6, §7

[10] = test system: MCF-7 (human breast adenocarcinoma) cells; test: MTT antiproliferative assay, MCF-7; type: cell-based; conditions: MCF7, 72 h, mean ± SD of three independent experiments
Protocol: as §1, §2, §3, §4, §5, §6, §7

SMILES: Clc1ccc2c(Nc3cccc(-c4nc5ccccc5[nH]4)c3)ccnc2c1 [Compound 5d, N-(3-(1H-benzo[d]imidazol-2-yl)phenyl)-7-chloroquinolin-4-amine]
- GI50 ([1]; Homo sapiens, THP-1, 72 h, MTT, mean ± SD of three independent experiments, read-out: GI50 THP1): 0.6 ± 0.3 µM
- tumor selectivity index (SI) THP1 ([1]; with respect to MDCK1 cells): 34
- GI50 ([2]; 72 h): 20.4 ± 2.8 µM
- GI50 ([2]; Canis lupus familiaris, MDCK1, 72 h): 11.4 to 20.4 µM
- GI50 [3]: 4.3 ± 1.2 µM
- proportion of polyploid giant cancer cells (THP-1 cells): increased proportion
- decrease in G0/G1 phase (THP-1 cells; vs control): 4.5 times
- increase in G2/M phase (THP-1 cells; vs control): 62.8%
- increase of cells in subG0/G1 phase (THP-1 cells; vs control): 2.9 times
- GI50 [4]: 0.7 ± 0.1 µM
- proportion of polyploid giant cancer cells (HuT78 cells): increased proportion
- decrease in G0/G1 phase (HuT78 cells; vs control): 5 times
- increase in G2/M phase (HuT78 cells; vs control): 2 times
- increase of cells in subG0/G1 phase (HuT78 cells; vs control): 13 times
- GI50 at 72 h [5]: 0.4 to 8 µM
- GI50 [6]: 0.4 to 15.6 µM
- GI50 [7]: 1 ± 0.1 µM
- GI50 [8]: 8.2 ± 6.2 µM
- GI50 ([9]; Homo sapiens, HuT78, 72 h, MTT, mean ± SD of three independent experiments): 0.4 ± 0.3 µM
- tumor selectivity index (SI) HuT78 ([9]; with respect to MDCK1 cells): 51
- GI50 [10]: 33.6 ± 8.3 µM
